Among the data in patent publication US20030207812A1, “Cd45 inhibitors” (priority 2002, published 2003) are IC50 and CC50 values, retold here.

Read-outs that look alike come from different tables or passages of the source. Where a SMILES comes first, the peptide text is derived from it. The star is where a group is joined. 3Phenanthroyl(9,10-dioxo) = O=C1C(=O)c2ccc(C(=O)*)cc2-c2ccccc21; X1 = O=C1C(=O)c2cc(N*)ccc2-c2ccccc21

For data set [1], the target named is T1, CD45 (Homo sapiens, UniProt P08575).
T1 construct: incubating the cytosolic portion of CD45 with the compounds and p-nitrophenyl phosphate (pNPP); purchased BIOMOL (Plymouth Meeting, Pa.)
T1 sequence (P08575 599-1306 limits assumed): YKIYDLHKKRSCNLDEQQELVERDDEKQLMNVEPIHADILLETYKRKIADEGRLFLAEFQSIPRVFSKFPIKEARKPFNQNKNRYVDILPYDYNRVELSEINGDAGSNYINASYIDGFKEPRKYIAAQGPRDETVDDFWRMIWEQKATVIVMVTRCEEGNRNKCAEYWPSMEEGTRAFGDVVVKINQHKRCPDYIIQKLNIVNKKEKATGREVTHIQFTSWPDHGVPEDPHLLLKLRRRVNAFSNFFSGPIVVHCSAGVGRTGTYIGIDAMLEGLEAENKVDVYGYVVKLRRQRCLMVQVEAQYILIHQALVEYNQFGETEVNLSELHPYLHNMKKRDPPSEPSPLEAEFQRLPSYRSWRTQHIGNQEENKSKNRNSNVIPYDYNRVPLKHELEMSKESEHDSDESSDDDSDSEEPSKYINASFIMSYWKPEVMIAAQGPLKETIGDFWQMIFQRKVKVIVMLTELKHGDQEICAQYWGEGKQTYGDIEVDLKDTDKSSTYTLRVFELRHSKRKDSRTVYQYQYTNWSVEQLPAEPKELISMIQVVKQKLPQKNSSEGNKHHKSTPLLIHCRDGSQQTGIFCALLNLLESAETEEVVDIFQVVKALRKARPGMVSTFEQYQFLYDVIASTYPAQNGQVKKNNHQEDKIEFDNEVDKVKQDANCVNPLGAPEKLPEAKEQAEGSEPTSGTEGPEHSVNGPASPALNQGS
As to the kind of experiment: Phosphatase assay using pNPP as substrate. The format is biochemical. How it is done: Phosphatase assay using pNPP as substrate:
CD45 enzyme was obtained from BIOMOL (Plymouth Meeting, Pa.). Phosphatase activity was assayed in a buffer containing final concentrations of 25 mM imidazole at pH 7.0, 50 mM NaCl, 2.5 mM ethylenediaminetetraacetic acid (“EDTA”), 5 mM dithiothreitol (“DTT”) and 10 μg/mL bovine serum albumin (“BSA”) using pNPP as a substrate.

Data set [2] addresses T1, CD45. As to the kind of experiment: Phosphatase assay using lck 10-mer as substrate. The format is biochemical. Particulars: CD45 phosphatase, lck carboxy-terminal peptide TEGQpYQPQP substrate, pH 7.2; read-out: Ick IC50. How it is done: Phosphatase assay using lck 10-mer as substrate:
Phosphatase activity was assayed in 96 well plates in a buffer containing final concentrations of 25 mM HEPES at pH 7.2, 5 mM DTT and 10 μg/mL BSA using the lck carboxy-terminal peptide TEGQpYQPQP as the substrate (Cho, H., Krishnaraj, R., Itoh, M., Kitas, E., Bannwarth, W., Saito, H., Walsh, C. T. 1993. Substrate specificities of catalytic fragments of protein tyrosine phosphatases (HPTPb, LAR, and CD45) toward the phosphotyrosylpeptide substrates and thiophosphotyrosylated peptides as inhibitors. Protein Science 2:977-984). Compounds were tested in a range from 30 to 0.01 μM in a final concentration of 5% DMSO. Enzyme was incubated with substrate with or without compound, at room temperature for 1.5 h. At the end of the incubation period, BIOMOL “Green Reagent” (BIOMOL, Plymouth Meeting, Pa.) was added to each well, the plates incubated at room temperature for 30 min and absorbance read at 620 nm.

Another data set deals with T cells (PBMC). Briefly: cells. The format is cell-based, human. Particulars: read-out: T cell prolif. IC50. How it is done:
Cell isolation and T cell proliferation assay:
Whole blood was obtained from healthy human blood donors. Peripheral blood mononuclear cells (“PBMC”) were isolated using Lymphoprep density-gradient centrifugation (Nycomed Amersham, Oslo, Norway), washed, counted and resuspended at 2×10^6 cells/mL in RPMI 1640 medium containing glutamine, 0.1 mg/mL gentamycin and 10% heat inactivated human serum. PBMC were transferred to 96-well plates (2×10^5 cells/well) containing compound or vehicle control, with the final concentration of DMSO not to exceed 0.3%, and incubated for 1 hour before addition of the activating anti-CD3 antibody, OKT3 (30ng/mL). After 24 hours in culture, the cells were pulsed with [^3H]thymidine (1 μCi/well) overnight and harvested the next day onto 96-well Packard GF/C filter plates using a Packard Cell Harvester (Packard Instruments, Meriden, Conn.). The filter plate was dried, the bottom of the plate sealed, 25 μL of Microscint 20 scintillation fluid added to each well, the top of the plate sealed with TopSeal-A, and the plate counted on a Packard TopCount. The data from the TopCount is transferred into Excel 5 (Microsoft, Redmond, Wash.) and formatted for EC50 determination using Prism software (GraphPad Software, San Diego, Calif.).

Data set [3] can be described thus: Cytotoxicity assay (Calcein-AM uptake). The following applies: human, PHA-expanded T-cell lymphoblasts from PBMC.
Procedure: Calcein-AM (Molecular Probes. Eugene, Oreg.) uptake, as a quantitative measure of cell viability, was used to evaluate the toxic effect of compounds on T cells.
The T-cell lymphoblasts were purified by separation over Lymphoprep, plated at 2×10^5/well in a round bottom 96-well plate containing RPMI with compound and incubated overnight at 37° C. in an incubator containing 5% CO2. The dilution scheme and culture media were the same as those used in the T-cell proliferation assay. After the incubation period, cells were washed with Dulbecco's phosphate-buffered saline (D-PBS) and incubated with 1 μM Calcein-AM for 30-45 mim in D-PBS as described in the technical sheet provided with The LIVE/DEAD Viability/Cytotoxicity Kit from Molecular Probes.
The mark [4] stands for this setting: CD45 phosphatase, pNPP substrate, pH 7.0, read-out: pNPP IC50.
Where [5] appears, read: human PBMC, OKT3 30 ng/mL, [3H]thymidine.

Regarding `O=C(Nc1ccc2c(c1)C(=O)C(=O)c1ccccc1-2)c1ccccc1F` [Example 1, N-(9,10-Dioxo-9,10-dihydro-phenanthren-2-yl)-2-fluoro-benzamide], the IC50 (usually the point on the concentration scale where inhibition reaches its midpoint) was 0.6 µM at CD45 [1] (setting [4]), 11 µM at CD45 [2] and 3.1 µM in the data set with T cells (PBMC) (setting [5]). In addition, the CC50 (usually the concentration that lowers cell viability or growth by half) in data set [3] was 20 µM.
Turning to `CC(C)(C)C(=O)Nc1ccc2c(c1)C(=O)C(=O)c1ccccc1-2` [Example 4, N-(9,10-Dioxo-9,10-dihydro-phenanthren-2-yl)-2,2-dimethyl-propionamide], the IC50 at CD45 [1] (setting [4]) amounted to 0.2 µM; at CD45 [2] it was 3.8 µM. Besides, in data set [3], the CC50 is 3.5 µM.
For `O=C1C(=O)c2ccc(NC(=O)c3ccccc3C(F)(F)F)cc2-c2ccccc21` [Example 13, N-(9,10-Dioxo-9,10-dihydro-phenanthren-3-yl)-2-trifluoromethyl-benzamide], the IC50 is 1.1 µM on CD45 [1] (setting [4]) and 5.8 µM at CD45 [2]. For the same compound, the CC50 in data set [3] was 14 µM.
Regarding `Cc1ccc(S(=O)(=O)N(c2ccc3c(c2)C(=O)C(=O)c2ccccc2-3)S(=O)(=O)c2ccc(C)cc2)cc1` [Example 14, N-(9,10-Dioxo-9,10-dihydro-phenanthren-2-yl)-4-methyl-N-[(4-methylphenyl)sulfonyl]-benzenesulfonamide], the IC50 on CD45 [1] (setting [4]) was 12.9 µM; at CD45 [2] it was greater than 30 µM. For the same compound, the CC50 in data set [3] is 5.3 µM.
`O=C1C(=O)c2cc(-c3cc4ccccc4o3)ccc2-c2ccccc21` [Example 16, 2-Benzofuran-2-yl-phenanthrene-9,10-dione]: at CD45 [1] (setting [4]), the IC50 amounted to 3.7 µM. Moreover, in data set [3], the CC50 is 3.6 µM.
For `O=C1C(=O)c2cc(-c3ccccc3F)ccc2-c2ccccc21` [Example 18, 2-(2-Fluoro-phenyl)-phenanthrene-9,10-dione], on CD45 [1] (setting [4]), the IC50 was 0.75 µM. Moreover, the CC50 in data set [3] is 8.4 µM.
Consider `COc1ccccc1-c1ccc2c(c1)C(=O)C(=O)c1ccccc1-2` [Example 20, 2-(2-Methoxy-phenyl)-phenanthrene-9,10-dione], for which the IC50 at CD45 [1] (setting [4]) stood at 0.99 µM. Also, in data set [3], the CC50 is 8.9 µM.
On to `NC(=O)CC[C@H](NC(=O)c1ccc2c(c1)-c1ccccc1C(=O)C2=O)C(=O)N[C@@H](CCC(N)=O)C(=O)N1CCC[C@H]1C(=O)N[C@@H](CCC(=O)O)C(=O)NCC(=O)O` [Example 34] ({3Phenanthroyl(9,10-dioxo)}-QQPEG-OH), for which the IC50 against CD45 [1] came to 0.9 µM; at CD45 [2] it was 1.9 µM.
Turning to `NC(=O)CC[C@H](NC(=O)[C@@H]1CCCN1C(=O)[C@H](CCC(=O)O)NC(=O)CNC(=O)c1ccc2c(c1)-c1ccccc1C(=O)C2=O)C(=O)NCC(=O)O` [Example 38] ({3Phenanthroyl(9,10-dioxo)}-GEPQG-OH), the 50% inhibitory concentration (IC50) at CD45 [1] amounted to 0.7 µM; at CD45 [2] it was 2.2 µM.
For the compound `CC(=O)N[C@@H](C)C(=O)N[C@H](C(=O)N[C@@H](CCC(=O)O)C(=O)NCC(=O)N[C@@H](CCC(N)=O)C(=O)N[C@@H](CC(=O)Nc1ccc2c(c1)C(=O)C(=O)c1ccccc1-2)C(=O)O)[C@@H](C)O` [Example 60] (Ac-ATEGQD(X1)-OH), the IC50 at CD45 [1] (setting [4]) was found to be 2 µM; on CD45 [2], 7.9 µM.
For the compound `CC(=O)N[C@H](C(=O)N[C@@H](C)C(=O)N[C@H](C(=O)N[C@@H](CCC(=O)O)C(=O)NCC(=O)N[C@@H](CCC(N)=O)C(=O)N[C@@H](CC(=O)Nc1ccc2c(c1)C(=O)C(=O)c1ccccc1-2)C(=O)O)[C@@H](C)O)[C@@H](C)O` [Example 61] (Ac-TATEGQD(X1)-OH), at CD45 [1] (pH 7, read-out: pNPP IC50), the IC50 stood at 1.8 µM.
Consider `CC(=O)N[C@@H](Cc1ccccc1)C(=O)N[C@H](C(=O)N[C@@H](C)C(=O)N[C@H](C(=O)N[C@@H](CCC(=O)O)C(=O)NCC(=O)N[C@@H](CCC(N)=O)C(=O)N[C@@H](CC(=O)Nc1ccc2c(c1)C(=O)C(=O)c1ccccc1-2)C(=O)O)[C@@H](C)O)[C@@H](C)O` [Example 62] (Ac-FTATEGQD(X1)-OH), for which, at CD45 [1] (pH 7, read-out: pNPP IC50), the IC50 was 1.4 µM.
For the compound `COC(=O)CCCCCCC(=O)Nc1ccc2c(c1)C(=O)C(=O)c1ccccc1-2` [Example 71, 7-(9,10-Dioxo-9,10-dihydro-phenanthren-2-ylcarbamoyl)-heptanoic Acid Methyl Ester], the IC50 on CD45 [1] (setting [4]) came out at 0.5 µM; on CD45 [2], 3.7 µM. The CC50 in data set [3] is 14 µM.
With `COC(=O)CCCCCCCCC(=O)Nc1ccc2c(c1)C(=O)C(=O)c1ccccc1-2` [Example 72, 9-(9,10-Dioxo-9,10-dihydro-phenanthren-2-ylcarbamoyl)-nonanoic Acid Methyl Ester], the IC50 on CD45 [1] (setting [4]) was greater than 30 µM.
`COC(=O)CCC(=O)Nc1ccc2c(c1)C(=O)C(=O)c1cc(NC(=O)CCC(=O)OC)ccc1-2` [Example 82, N-[7-(3-Methoxycarbonyl-propionylamino)-9,10-dioxo-9,10-dihydro-phenanthren-2-yl]-succinamic Acid Methyl Ester]: the IC50 on CD45 [1] (setting [4]) was determined as 0.5 µM; on CD45 [2], 2.9 µM. Further, the CC50 in data set [3] is 7 µM.
For the compound `Nc1ccc2c(c1)C(=O)C(=O)c1ccccc1-2` [Example 87, 2-Amino-phenanthrene-9,10-dione], the IC50 came out at 0.4 µM on CD45 [1] (setting [4]) and 2.3 µM at CD45 [2]. Also, the CC50 in data set [3] is 5 µM.
Consider `Nc1ccc2c(c1)-c1ccccc1C(=O)C2=O` [Example 88, 3-Amino-phenanthrene-9,10-dione], for which the IC50 on CD45 [1] (setting [4]) came out at 3.74 µM; on CD45 [2], 10.5 µM. For the same compound, the CC50 in data set [3] is 17 µM.
On to `COC(=O)CCC(=O)Nc1ccc2c(c1)-c1ccccc1C(=O)C2=O` [Example 90, N-(9,10-Dioxo-9,10-dihydro-phenanthren-3-yl)-succinamic Acid Methyl Ester], for which the IC50 on CD45 [1] (setting [4]) came out at 0.4 µM; on CD45 [2], 3.2 µM. Also, the CC50 in data set [3] was 18 µM.
With `O=C1C(=O)c2cccc([N+](=O)[O-])c2-c2ccccc21` [Example 93, 4-Nitro-phenanthrene-9,10-dione], the IC50 on CD45 [1] (setting [4]) came to 0.5 µM; at CD45 [2], 3.9 µM. In addition, in data set [3], the CC50 was 10 µM.
Take `O=C1C(=O)c2cccc([N+](=O)[O-])c2-c2ccc([N+](=O)[O-])cc21` [Example 95, 2,5-Dinitro-phenanthrene-9,10-dione]: the IC50 in the data set on T cells (PBMC) (Homo sapiens) is greater than 30 µM. The CC50 in data set [3] was no less than 30 µM.
For `O=C(O)c1ccc2c(c1)-c1ccccc1C(=O)C2=O` [Example 98, 9,10-Dioxo-9,10-dihydro-phenanthrene-3-carboxylic Acid], the IC50 on CD45 [1] (setting [4]) was 1 µM; on CD45 [2], 2.4 µM; with T cells (PBMC) (setting [5]), greater than 30 µM.
As for `CC(C)(C)OC(=O)CNC(=O)c1ccc2c(c1)-c1ccccc1C(=O)C2=O` [Example 102, [(9,10-dioxo-9,10-dihydro-phenanthrene-3-carbonyl)-amino]-acetic acid tert-butyl ester], the IC50 is 3.4 µM on CD45 [2] and 0.3 µM in the data set with T cells (PBMC) (setting [5]). Moreover, the CC50 in data set [3] is 2.5 µM.
